# Measured values reported in BindingDB's records for doi:10.1124/jpet.103.053975 (National Institute On Drug Abuse, 2003).
# pKi: −log10 of the molar value. Where “and” joins values, the source holds several entries; their conditions need not be identical. Equal entries are not always repeated.
# Assays:
# [1] = target: T1, Alpha-2A adrenergic receptor (Homo sapiens, UniProt P08913)
# T1 sequence (P08913 whole entry): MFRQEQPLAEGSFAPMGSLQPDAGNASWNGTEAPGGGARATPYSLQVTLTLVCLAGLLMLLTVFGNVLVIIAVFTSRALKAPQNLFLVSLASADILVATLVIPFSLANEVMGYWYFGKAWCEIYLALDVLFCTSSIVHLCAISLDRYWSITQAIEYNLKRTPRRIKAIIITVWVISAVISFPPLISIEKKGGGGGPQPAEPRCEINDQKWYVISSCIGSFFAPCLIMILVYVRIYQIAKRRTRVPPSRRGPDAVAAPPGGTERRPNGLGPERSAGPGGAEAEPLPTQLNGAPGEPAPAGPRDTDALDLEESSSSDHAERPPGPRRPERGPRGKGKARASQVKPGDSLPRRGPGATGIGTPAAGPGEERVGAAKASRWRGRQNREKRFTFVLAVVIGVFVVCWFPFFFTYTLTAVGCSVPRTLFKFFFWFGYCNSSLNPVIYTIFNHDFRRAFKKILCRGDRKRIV
# [2] = target: 5-hydroxytryptamine receptor 7 (Homo sapiens, UniProt P34969)
# [3] = target: Sodium-dependent noradrenaline transporter (Homo sapiens, UniProt P23975)
# [4] = target: T2, Alpha-2C adrenergic receptor (Homo sapiens, UniProt P18825)
# T2 sequence (P18825 whole entry): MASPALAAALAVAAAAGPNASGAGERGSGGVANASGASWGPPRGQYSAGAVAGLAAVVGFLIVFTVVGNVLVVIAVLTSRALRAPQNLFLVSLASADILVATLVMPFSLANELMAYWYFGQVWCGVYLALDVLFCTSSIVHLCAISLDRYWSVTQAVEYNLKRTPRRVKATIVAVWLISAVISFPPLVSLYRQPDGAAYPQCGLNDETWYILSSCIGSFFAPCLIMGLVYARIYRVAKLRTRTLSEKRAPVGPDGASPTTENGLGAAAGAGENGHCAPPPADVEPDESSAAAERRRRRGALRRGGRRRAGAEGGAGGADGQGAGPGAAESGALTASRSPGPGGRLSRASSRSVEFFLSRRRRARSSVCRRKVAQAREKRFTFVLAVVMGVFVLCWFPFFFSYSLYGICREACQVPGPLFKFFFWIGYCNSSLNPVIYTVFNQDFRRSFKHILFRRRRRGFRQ
# [5] = target: Sodium-dependent serotonin transporter (Homo sapiens, UniProt P31645)
# Sodium-dependent serotonin transporter, sequence (P31645 whole entry): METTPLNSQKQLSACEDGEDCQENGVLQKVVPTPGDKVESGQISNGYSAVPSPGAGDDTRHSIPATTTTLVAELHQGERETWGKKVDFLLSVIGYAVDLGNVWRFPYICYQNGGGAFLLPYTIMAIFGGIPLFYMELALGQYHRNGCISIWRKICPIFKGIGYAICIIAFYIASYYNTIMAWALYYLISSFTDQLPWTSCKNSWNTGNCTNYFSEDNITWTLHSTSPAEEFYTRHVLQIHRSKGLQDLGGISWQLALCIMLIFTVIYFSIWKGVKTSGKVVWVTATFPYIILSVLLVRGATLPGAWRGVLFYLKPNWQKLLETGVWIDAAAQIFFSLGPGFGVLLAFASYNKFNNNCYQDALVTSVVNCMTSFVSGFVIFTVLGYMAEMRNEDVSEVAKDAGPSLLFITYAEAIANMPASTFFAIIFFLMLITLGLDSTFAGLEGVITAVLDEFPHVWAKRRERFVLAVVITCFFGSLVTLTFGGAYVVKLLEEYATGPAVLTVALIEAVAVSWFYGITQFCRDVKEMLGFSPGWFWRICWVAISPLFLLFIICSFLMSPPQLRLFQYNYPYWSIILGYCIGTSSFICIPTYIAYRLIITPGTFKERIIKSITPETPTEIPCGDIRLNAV
# 5-hydroxytryptamine receptor 7, sequence (P34969 whole entry): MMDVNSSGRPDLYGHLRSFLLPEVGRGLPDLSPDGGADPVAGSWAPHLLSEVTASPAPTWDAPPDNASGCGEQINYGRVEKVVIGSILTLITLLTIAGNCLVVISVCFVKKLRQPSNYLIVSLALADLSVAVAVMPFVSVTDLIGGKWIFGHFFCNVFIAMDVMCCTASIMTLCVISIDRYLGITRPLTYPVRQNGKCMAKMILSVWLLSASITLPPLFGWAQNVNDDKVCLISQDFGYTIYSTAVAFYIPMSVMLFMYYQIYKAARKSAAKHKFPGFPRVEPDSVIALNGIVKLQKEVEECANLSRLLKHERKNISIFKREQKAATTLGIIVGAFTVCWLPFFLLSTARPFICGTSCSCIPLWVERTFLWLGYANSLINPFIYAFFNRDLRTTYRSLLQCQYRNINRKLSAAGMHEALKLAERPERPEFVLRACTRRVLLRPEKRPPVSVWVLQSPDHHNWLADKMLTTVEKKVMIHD
# Sodium-dependent noradrenaline transporter, sequence (P23975 whole entry): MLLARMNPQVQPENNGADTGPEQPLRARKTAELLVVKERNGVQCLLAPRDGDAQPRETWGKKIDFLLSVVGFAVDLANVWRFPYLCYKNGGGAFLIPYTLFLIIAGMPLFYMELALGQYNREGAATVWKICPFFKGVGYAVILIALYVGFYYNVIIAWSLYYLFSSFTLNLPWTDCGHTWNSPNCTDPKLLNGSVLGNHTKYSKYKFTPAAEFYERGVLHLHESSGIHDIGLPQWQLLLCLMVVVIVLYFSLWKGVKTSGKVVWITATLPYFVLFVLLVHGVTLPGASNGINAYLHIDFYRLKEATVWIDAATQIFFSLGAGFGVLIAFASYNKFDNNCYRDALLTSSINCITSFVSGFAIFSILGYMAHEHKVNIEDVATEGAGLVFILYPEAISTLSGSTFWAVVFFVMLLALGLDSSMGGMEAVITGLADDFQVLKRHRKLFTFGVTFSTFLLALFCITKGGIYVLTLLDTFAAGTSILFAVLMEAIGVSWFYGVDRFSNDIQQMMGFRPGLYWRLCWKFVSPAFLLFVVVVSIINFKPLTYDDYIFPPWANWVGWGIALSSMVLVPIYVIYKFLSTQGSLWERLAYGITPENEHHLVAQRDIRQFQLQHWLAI
SMILES,pKi [1],pKi [2],pKi [3],pKi [4],pKi [5]
"CC(N)C(O)c1ccccc1 [(1R, 2S)-2-Amino-1-phenyl-propan-1-ol]",5.52 and 5.88 and 5.58 and 5.59,5.15,6.86 and 7.38 and 7.82 and 7.52,–,–
CNC(C)C(O)c1ccccc1 (configuration not stated) [CAS_24221-86-1],5.70,–,–,6.15 and 5.91,–
CC(N)C(=O)c1ccccc1 (configuration not stated) [CAS_62258],5.17,5.57,7.91,6.12,5.63
CN[C@@H](C)Cc1ccccc1 [METHAMPHETAMINE (+)],–,–,7.91,–,6.13
CNC(C)C(=O)c1ccccc1 (configuration not stated) [NSC_1576],5.04,6.00,7.88,6.22,5.75
